Results taken from patent EP4644396A1 (Visionpharma (Nantong) Co., Ltd, priority 2022, dated 2024).
Where two headings read alike, the source gives them in different places.

What was measured:
[1] = target: T1, human TLR7 (Homo sapiens, UniProt Q9NYK1); experiment: HEK-Blue hTLR7 SEAP reporter gene inhibition assay; format: cell-based; conditions: read-out: HEK-Blue hTLR7 IC50
T1 sequence (Q9NYK1 27-1049): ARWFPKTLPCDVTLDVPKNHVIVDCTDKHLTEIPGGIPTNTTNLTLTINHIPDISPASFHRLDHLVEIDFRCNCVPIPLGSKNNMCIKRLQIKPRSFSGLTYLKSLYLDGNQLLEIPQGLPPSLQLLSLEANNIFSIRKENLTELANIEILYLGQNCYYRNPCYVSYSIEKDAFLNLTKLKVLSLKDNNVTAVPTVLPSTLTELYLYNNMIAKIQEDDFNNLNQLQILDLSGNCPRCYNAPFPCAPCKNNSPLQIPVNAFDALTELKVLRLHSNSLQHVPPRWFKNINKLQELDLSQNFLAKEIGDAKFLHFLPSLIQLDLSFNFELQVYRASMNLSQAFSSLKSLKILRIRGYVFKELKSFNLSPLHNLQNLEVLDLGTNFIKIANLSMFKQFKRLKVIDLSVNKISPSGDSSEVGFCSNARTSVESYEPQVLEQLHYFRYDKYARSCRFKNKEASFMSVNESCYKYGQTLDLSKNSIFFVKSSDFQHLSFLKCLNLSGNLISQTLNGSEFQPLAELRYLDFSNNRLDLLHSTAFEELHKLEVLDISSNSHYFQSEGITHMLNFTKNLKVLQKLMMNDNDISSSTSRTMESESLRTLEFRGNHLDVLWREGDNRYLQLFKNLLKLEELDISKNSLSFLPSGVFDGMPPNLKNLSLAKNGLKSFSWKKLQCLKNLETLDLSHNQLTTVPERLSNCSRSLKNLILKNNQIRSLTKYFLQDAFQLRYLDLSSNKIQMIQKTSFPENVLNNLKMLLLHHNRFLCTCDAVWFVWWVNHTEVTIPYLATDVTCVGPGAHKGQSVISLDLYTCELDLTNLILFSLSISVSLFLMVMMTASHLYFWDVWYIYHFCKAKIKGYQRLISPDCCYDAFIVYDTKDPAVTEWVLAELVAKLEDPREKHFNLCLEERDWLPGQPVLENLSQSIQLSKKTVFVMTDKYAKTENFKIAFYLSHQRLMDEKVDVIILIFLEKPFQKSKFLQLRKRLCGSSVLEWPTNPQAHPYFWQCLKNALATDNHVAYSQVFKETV
In short: (§1)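 HEK-Blue cells stably expressing hTLR7 (80,000/well) or hTLR8 (60,000/well), SEAP under IFN-β minimal promoter with five NF-κB/AP-1 sites. Compounds (0.001–36 µM final) preincubated 15 min, then 10 µM ligand (Gardiquimod for TLR7) for 20 h. SEAP read with Quanti-Blue; IC50 calculated.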

[2] = target: T2, human TLR8 (Homo sapiens, UniProt Q9NR97); experiment: HEK-Blue hTLR8 SEAP reporter gene inhibition assay; format: cell-based; conditions: read-out: HEK-Blue hTLR8 IC50
T2 construct: expressed in transfected cells
T2 sequence (Q9NR97 27-1041): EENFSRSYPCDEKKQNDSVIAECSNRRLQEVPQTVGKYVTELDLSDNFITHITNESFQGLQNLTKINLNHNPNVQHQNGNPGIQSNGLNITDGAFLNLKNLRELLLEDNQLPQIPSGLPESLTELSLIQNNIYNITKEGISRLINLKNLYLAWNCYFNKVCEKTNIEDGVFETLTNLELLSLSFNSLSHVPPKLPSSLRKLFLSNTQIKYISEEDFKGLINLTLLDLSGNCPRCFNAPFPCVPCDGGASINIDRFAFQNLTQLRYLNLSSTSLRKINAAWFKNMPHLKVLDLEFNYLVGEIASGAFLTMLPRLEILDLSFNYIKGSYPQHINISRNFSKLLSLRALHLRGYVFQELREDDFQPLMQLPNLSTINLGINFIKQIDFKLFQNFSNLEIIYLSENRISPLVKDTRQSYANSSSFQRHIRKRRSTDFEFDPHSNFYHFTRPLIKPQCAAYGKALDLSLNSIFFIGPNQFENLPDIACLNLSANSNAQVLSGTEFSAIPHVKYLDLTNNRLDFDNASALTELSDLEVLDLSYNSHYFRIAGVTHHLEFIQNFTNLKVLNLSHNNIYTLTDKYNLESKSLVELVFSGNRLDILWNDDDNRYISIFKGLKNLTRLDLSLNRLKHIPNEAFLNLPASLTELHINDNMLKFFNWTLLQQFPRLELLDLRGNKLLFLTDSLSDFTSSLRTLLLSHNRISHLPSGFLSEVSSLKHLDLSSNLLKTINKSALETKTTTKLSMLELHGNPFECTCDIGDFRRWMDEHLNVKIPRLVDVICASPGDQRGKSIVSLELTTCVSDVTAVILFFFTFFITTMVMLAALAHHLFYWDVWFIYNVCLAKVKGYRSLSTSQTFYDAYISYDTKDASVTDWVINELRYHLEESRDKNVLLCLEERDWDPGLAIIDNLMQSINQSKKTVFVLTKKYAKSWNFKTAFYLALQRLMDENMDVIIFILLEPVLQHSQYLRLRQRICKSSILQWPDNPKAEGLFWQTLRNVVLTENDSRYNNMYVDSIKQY
In short: as §1

[3] = hTLR7 HEK-Blue cells, TLR7 ligand Gardiquimod 10 µM, 20 hours, SEAP by Quanti-blue, class symbols
[4] = hTLR8 HEK-Blue cells, TLR8 ligand 10 µM, 20 hours, SEAP by Quanti-blue, class symbols

| IC50 [1, 3] | IC50 [2, 4] | Compound | other results |
| --- | --- | --- | --- |
| < 50 nM | < 100 nM | C[C@@H]1CN(c2ccc(C#N)n3ncc(F)c23)Cc2c3c(nn21)CN(C[C@@](C)(O)CO)[C@@H](C)C3 [Example I-224, 4-((4R,9S)-8-((R)-2,3-dihydroxy-2-methylpropyl)-4,9-dimethyl-3,4,7,8,9,10-hexahydropyrido[3',4':3,4]pyrazolo[1,5-a]pyrazin-2(1H)-yl)-3-fluoropyrazolo[1,5-a]pyridine-7-carbonitrile] | – |
| – | – | C[C@@H]1CN(c2ccc(C#N)n3ncc(F)c23)Cc2c3c(nn21)CN(CC(C)(CO)CO)[C@@H](C)C3 [Example I-225, 3-Fluoro-4-((4R,9S)-8-(3-hydroxy-2-(hydroxymethyl)-2-methylpropyl)-4,9-dimethyl-3,4,7,8,9,10-hexahydropyrido[3',4':3,4]pyrazolo[1,5-a]pyrazin-2(1H)-yl)pyrazolo[1,5-a]pyridine-7-carbonitrile] | IC50 [1]: > 50 nM; IC50 [2]: > 100 nM |
| < 50 nM | > 100 nM | C[C@@H]1CN(c2ccc(C#N)n3ncc(F)c23)Cc2c3c(nn21)CN(C[C@](C)(O)CO)[C@@H](C)C3 [Example I-226, 4-((4R,9S)-8-((S)-2,3-dihydroxy-2-methylpropyl)-4,9-dimethyl-3,4,7,8,9,10-hexahydropyrido[3',4':3,4]pyrazolo[1,5-a]pyrazin-2(1H)-yl)-3-fluoropyrazolo[1,5-a]pyridine-7-carbonitrile] | – |
| – | – | N#Cc1ccc(N2C[C@H](N)C[C@H](C(F)(F)F)C2)c2cccnc12 [Example M5049, reference compound] | IC50 ([1]; hTLR7 HEK-Blue cells, TLR7 ligand Gardiquimod 10 µM, 20 hours, SEAP by Quanti-blue, numeric value): 64 nM; IC50 ([2]; hTLR8 HEK-Blue cells, TLR8 ligand 10 µM, 20 hours, SEAP by Quanti-blue, numeric value): 150 nM |
| > 50 nM | > 100 nM | N-(tert-butyl)-2-((4R,9S)-2-(7-cyano-3-fluoropyrazolo[1,5-a]pyridin-4-yl)-4,9-dimethyl-1,2,3,4,9,10-hexahydropyrido[3',4':3,4]pyrazolo[1,5-a]pyrazin-8(7H)-yl)acetamide [Example I-154] | – |
